Converted amounts (≈) assume the structure as drawn.
Assays:
[1] = test system: CaES-17 (esophageal cancer cell); assay: Solid tumor cell growth inhibition, MTT, 72 h (Example 7); type: cell-based, human; details: Homo sapiens, CaEs17; 72 h, MTT, CAES-17
Experimental: (§1) Human solid tumor cell lines: Hep-2 (laryngeal carcinoma), A549 (human lung cancer), CaES-17 (esophageal cancer cell), PC-3 (prostate cancer), CNE (nasopharyngeal carcinoma cell) and SK-OV-3 (ovarian cancer cell), all of which are purchased from China Center For Type Culture Collection; RKO (human colon adenocarcinoma cell), MGC 803 (human gastric cancer cell), MG63 (osteosarcoma), and U87 MG (malignant glioma cell), all of which are purchased from Fuxiang Bio-tech Co. Ltd., Shanghai, China; PANC-1 (pancreatic cancer), Huh? (human liver cancer cell), Becap37 (human breast cancer cell), and Hela (human cervical cancer cell), all of which are donated by Cancer Research Institute of Zhejiang University, China.
(§2) Reagents: the same as in Example 5.
(§3) Obtaining 4000 well-growing human solid tumor cells and inoculating them into wells of a 96-well cell culture plate. The culture medium is DMEM High Glucose cell culture medium containing 10% fetal bovine serum. The plate is placed in a carbon dioxide cell incubator (5% CO2) at 37° C. and incubated for 24 hours. After been added with tetrandrine derivatives of different concentration and mixing uniformly, the plate is placed in a carbon dioxide cell incubator (5% CO2) at 37° C. and incubated for 72 hours. Then the viable cell concentration is determined by the MTT method and the cell viability (%) after drug treatment is calculated. In this experiment, the cell viability of control group (not treated with any compound) is set as 100%.

[2] = test system: PANC-1 (pancreatic cancer); assay: as above; type: cell-based, human; details: Homo sapiens; 72 h, MTT, PANC-1
Experimental: as §1, §2, §3

[3] = test system: PC-3 (prostate cancer); assay: as above; type: cell-based, human; details: Homo sapiens; 72 h, MTT, PC-3
Experimental: as §1, §2, §3

[4] = test system: MG63 (osteosarcoma); assay: as above; type: cell-based, human; details: Homo sapiens; 72 h, MTT, MG-63
Experimental: as §1, §2, §3

[5] = test system: K562/adr (drug-resistant, chronic myeloid leukemia, CML); assay: Leukemia cell growth inhibition, MTT, 72 h (Example 5); type: cell-based, human; details: Homo sapiens, K562/Adr; 72 h, MTT
Excerpt: (§4) Leukemia cell lines: leukemia cell lines: K562/adr (drug-resistant, chronic myeloid leukemia, CML), NB4 (acute promyelocytic leukemia, AML), Kasumi-1 (acute myeloid leukemia M2 type, AML-M2), Jurkat (acute lymphoblastic leukemia, ALL), all of which are donated by Cancer Research Institute of Zhejiang University, China; and H9 (acute lymphoblastic leukemia, ALL), which is purchased from China Center for Type Culture Collection.
(§5) Reagents: The standard sample of tetrandrine (TTD) is purchased from Ci Yuan Biotechnology Co., Ltd., Shaanxi, China; and the 5-substituted tetrandrine derivatives of the present invention.
(§6) Obtaining 6000 well-growing leukemia cells and inoculating them into wells of a 96-well cell culture plate. The culture medium is a 1640 cell culture medium containing 10% fetal bovine serum. After adding the tetrandrine derivatives of different concentrations and mixing uniformly, placing the plate in a carbon dioxide cell incubator (5% CO2) at 37° C. and incubating for 72 hours. Then the viable cell concentration is determined by the MTT method.

[6] = test system: Kasumi-1 (acute myeloid leukemia M2 type, AML-M2); assay: as above; type: cell-based, human; details: Homo sapiens, Kasumi 1
Excerpt: as §4, §5, §6

[7] = test system: Jurkat (acute lymphoblastic leukemia, ALL); assay: as above; type: cell-based, human; details: Homo sapiens, Jurkat; 72 h, MTT
Excerpt: as §4, §5, §6

[8] = test system: H9 (acute lymphoblastic leukemia, ALL); assay: as above; type: cell-based, human; details: Homo sapiens; 72 h, MTT
Excerpt: as §4, §5, §6

[9] = test system: Becap37 (human breast cancer cell); assay: Solid tumor cell growth inhibition, MTT, 72 h (Example 7); type: cell-based; details: Homo sapiens; 72 h, MTT, Becap-37
Experimental: as §1, §2, §3

[10] = test system: MGC 803 (human gastric cancer cell); assay: as above; type: cell-based; details: Homo sapiens
Experimental: as §1, §2, §3

[11] = test system: Huh7 (human liver cancer cell); assay: as above; type: cell-based; details: Homo sapiens; 72 h, MTT, Huh-7
Experimental: as §1, §2, §3

[12] = test system: A549 (human lung cancer); assay: as above; type: cell-based; details: Homo sapiens; 72 h, MTT, A549
Experimental: as §1, §2, §3

[13] = test system: RPMI8226 (multiple myeloma); assay: Multiple myeloma cell growth inhibition, MTT, 72 h (Example 6); type: cell-based, human; details: Homo sapiens, RPMI-8226; 72 h, MTT, RPMI8226
Experimental: Multiple myeloma and lymphoma cell lines: RPMI8226 (multiple myeloma), purchased from Fuxiang Bio-tech Co. Ltd., Shanghai, China.
as §2
as §6, with “incubated” for “incubating”

IC50 [1]	IC90 [1]	IC50 [2]	IC90 [2]	IC50 [3]	IC90 [3]	IC50 [4]	IC90 [4]	IC50 [5]	IC90 [5]	IC50 [6]	IC90 [6]	IC50 [7]	IC90 [7]	IC50 [8]	IC90 [8]	IC50 [9]	IC90 [9]	IC50 [10]	IC90 [10]	SMILES	other results
2.04 µg/mL (≈ 2.77 µM)	12 µg/mL (≈ 16.3 µM)	4.66 µg/mL (≈ 6.32 µM)	9.5 µg/mL (≈ 12.9 µM)	4.1 µg/mL (≈ 5.56 µM)	7.91 µg/mL (≈ 10.7 µM)	1.06 µg/mL (≈ 1.44 µM)	3.66 µg/mL (≈ 4.97 µM)	0.88 µg/mL (≈ 1.19 µM)	4.63 µg/mL (≈ 6.28 µM)	1.8 µg/mL (≈ 2.44 µM)	9.69 µg/mL (≈ 13.1 µM)	3.64 µg/mL (≈ 4.94 µM)	12.1 µg/mL (≈ 16.5 µM)	2.03 µg/mL (≈ 2.75 µM)	4.37 µg/mL (≈ 5.93 µM)	1.77 µg/mL (≈ 2.4 µM)	3.79 µg/mL (≈ 5.14 µM)	5.09 µg/mL (≈ 6.91 µM)	8.27 µg/mL (≈ 11.2 µM)	COc1ccc2cc1Oc1ccc(cc1)C[C@H]1c3cc(c(OC)cc3CCN1C)Oc1c(OC)c(OC)c(COCC3CCOC3)c3c1[C@H](C2)N(C)CC3 (some centres unmarked) [BS-TE-417]	IC50 [11]: 2.48 µg/mL (≈ 3.37 µM); IC90 [11]: 3.76 µg/mL (≈ 5.1 µM); IC50 [12]: 3.88 µg/mL (≈ 5.27 µM); IC90 [12]: 10.1 µg/mL (≈ 13.7 µM); IC50 [13]: 0.27 µg/mL (≈ 0.366 µM); IC90 [13]: 2 µg/mL (≈ 2.71 µM)
1.71 µg/mL (≈ 2.29 µM)	9.9 µg/mL (≈ 13.3 µM)	4.57 µg/mL (≈ 6.12 µM)	9.5 µg/mL (≈ 12.7 µM)	4.98 µg/mL (≈ 6.67 µM)	9.43 µg/mL (≈ 12.6 µM)	1.48 µg/mL (≈ 1.98 µM)	4.45 µg/mL (≈ 5.96 µM)	1.53 µg/mL (≈ 2.05 µM)	3.91 µg/mL (≈ 5.23 µM)	1.46 µg/mL (≈ 1.95 µM)	7.46 µg/mL (≈ 9.99 µM)	2.98 µg/mL (≈ 3.99 µM)	13.8 µg/mL (≈ 18.5 µM)	2.38 µg/mL (≈ 3.19 µM)	5 µg/mL (≈ 6.69 µM)	1.98 µg/mL (≈ 2.65 µM)	4.4 µg/mL (≈ 5.89 µM)	4.4 µg/mL (≈ 5.89 µM)	6.85 µg/mL (≈ 9.17 µM)	COc1ccc2cc1Oc1ccc(cc1)C[C@H]1c3cc(c(OC)cc3CCN1C)Oc1c(OC)c(OC)c(COCCn3ccnc3)c3c1[C@H](C2)N(C)CC3 [BS-TE-418]	IC50 [11]: 3.08 µg/mL (≈ 4.12 µM); IC90 [11]: 5.77 µg/mL (≈ 7.73 µM); IC50 [12]: 4.5 µg/mL (≈ 6.02 µM); IC90 [12]: 11 µg/mL (≈ 14.8 µM); IC50 [13]: 0.15 µg/mL (≈ 0.201 µM); IC90 [13]: 2.12 µg/mL (≈ 2.84 µM)
4.98 µg/mL (≈ 7.31 µM)	18.4 µg/mL (≈ 27.1 µM)	5.99 µg/mL (≈ 8.8 µM)	9.31 µg/mL (≈ 13.7 µM)	6.67 µg/mL (≈ 9.8 µM)	10.5 µg/mL (≈ 15.4 µM)	3.07 µg/mL (≈ 4.51 µM)	9.69 µg/mL (≈ 14.2 µM)	1.42 µg/mL (≈ 2.09 µM)	5.71 µg/mL (≈ 8.39 µM)	3.62 µg/mL (≈ 5.32 µM)	11.8 µg/mL (≈ 17.4 µM)	4.18 µg/mL (≈ 6.14 µM)	10.3 µg/mL (≈ 15.2 µM)	4.64 µg/mL (≈ 6.82 µM)	7.26 µg/mL (≈ 10.7 µM)	4.22 µg/mL (≈ 6.2 µM)	6.88 µg/mL (≈ 10.1 µM)	5.16 µg/mL (≈ 7.58 µM)	7.5 µg/mL (≈ 11 µM)	CCOCc1c2c3c(c(OC)c1OC)Oc1cc4c(cc1OC)CCN(C)[C@H]4Cc1ccc(cc1)Oc1cc(ccc1OC)C[C@@H]3N(C)CC2 [BS-TE-419]	IC50 [11]: 2.54 µg/mL (≈ 3.73 µM); IC90 [11]: 6.16 µg/mL (≈ 9.05 µM); IC50 [12]: 5.61 µg/mL (≈ 8.24 µM); IC90 [12]: 9.75 µg/mL (≈ 14.3 µM); IC50 [13]: 0.28 µg/mL (≈ 0.411 µM); IC90 [13]: 2.09 µg/mL (≈ 3.07 µM)
4.72 µg/mL (≈ 7.08 µM)	18.9 µg/mL (≈ 28.4 µM)	> 10 µg/mL	> 10 µg/mL	5.68 µg/mL (≈ 8.52 µM)	10.9 µg/mL (≈ 16.4 µM)	2.72 µg/mL (≈ 4.08 µM)	9.89 µg/mL (≈ 14.8 µM)	0.82 µg/mL (≈ 1.23 µM)	3.85 µg/mL (≈ 5.77 µM)	2.16 µg/mL (≈ 3.24 µM)	9.83 µg/mL (≈ 14.7 µM)	5.21 µg/mL (≈ 7.81 µM)	16 µg/mL (≈ 24 µM)	4.4 µg/mL (≈ 6.6 µM)	7.68 µg/mL (≈ 11.5 µM)	5.6 µg/mL (≈ 8.4 µM)	11.5 µg/mL (≈ 17.2 µM)	5.01 µg/mL (≈ 7.51 µM)	7.56 µg/mL (≈ 11.3 µM)	COCc1c2c3c(c(OC)c1OC)Oc1cc4c(cc1OC)CCN(C)[C@H]4Cc1ccc(cc1)Oc1cc(ccc1OC)C[C@@H]3N(C)CC2 [BS-TE-420]	IC50 [11]: 4.22 µg/mL (≈ 6.33 µM); IC90 [11]: 7.06 µg/mL (≈ 10.6 µM); IC50 [12]: 4.41 µg/mL (≈ 6.61 µM); IC90 [12]: 12.2 µg/mL (≈ 18.3 µM); IC50 [13]: 0.29 µg/mL (≈ 0.435 µM); IC90 [13]: 2.25 µg/mL (≈ 3.37 µM)

— patent US9133207B2, “Tetrandrine derivatives with substituted 5-carbon, preparation method and use thereof” (Hangzhou Bensheng Pharmaceutical Co., Ltd., priority 2011, dated 2015)
